# Measurements published in US8497371B2, “Pipemidic acid derivative autotaxin inhibitors” (University of Memphis Research Foundation, priority 2009, dated 2013).
# Key:
# Format in all cases: biochemical
# ATX = ATX (Homo sapiens, UniProt Q13822); experiment: ATX inhibition assay with FS-3 substrate; parameters: conditioned serum-free medium (CCM) from MDA-MB-435 cells as the source of ATX; endogenous in cells; host or cells: MDA-MB-435 cells (about 10x concentrated serum-free conditioned medium); details: for % Response at 10 μM (FS-3): 10 μM compound, FS-3 hydrolysis normalized to vehicle control (low = strong inhibition), mean ± S.D.; for single dose response comparison by aromatic substituent and position: Table 2, same values as % Response at 10 μM
# Experimental: ATX inhibition was assayed using the substrate FS-3 (Echelon Biosciences, Inc., Salt Lake City, Utah, USA). The FS-3 assay used ˜10 times concentrated conditioned serum-free medium (CCM) from MDA-MB-435 cells as the source of ATX, while CCM comprised one-third of the total volume.
# All assays were performed in 96-well plates with data read at 1 minute intervals by a Synergy2 system (BioTek, Winooski, Vt.). […] Results are shown at one hour, at which point all fluorescence and absorbance changes as a function of time were linear. All readings were normalized to vehicle control after subtraction of fluorescence in the absence of CCM. Data are shown as the mean±S.D. of at least three wells. All experiments were repeated at least twice and results are shown.
# human NPP7 = target: T1, human NPP7 (Homo sapiens, UniProt Q6UWV6); experiment: Determination of NPP7 inhibition (pNPPC substrate); details: 10 μM inhibitor
# T1 construct: transfected with human NPP6ex^51 or human NPP7ex expression plasmids; made in house; host or cells: HEK293 cells, transient transfection, pcDNA3.1(+); conditioned medium concentrated about 10x (CCM)
# T1 sequence (Q6UWV6 22-433 limits assumed): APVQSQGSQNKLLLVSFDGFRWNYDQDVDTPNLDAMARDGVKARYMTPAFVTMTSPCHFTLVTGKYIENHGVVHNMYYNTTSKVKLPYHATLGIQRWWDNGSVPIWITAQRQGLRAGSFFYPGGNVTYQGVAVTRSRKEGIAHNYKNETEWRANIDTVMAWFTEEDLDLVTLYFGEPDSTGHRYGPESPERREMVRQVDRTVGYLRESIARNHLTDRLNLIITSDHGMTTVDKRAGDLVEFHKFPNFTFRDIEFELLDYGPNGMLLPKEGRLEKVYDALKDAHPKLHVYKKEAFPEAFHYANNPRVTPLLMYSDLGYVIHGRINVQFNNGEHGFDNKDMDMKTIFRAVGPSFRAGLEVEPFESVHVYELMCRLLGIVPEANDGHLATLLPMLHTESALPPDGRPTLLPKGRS
# Experimental: (§1) Inhibitor selectivity was assayed using p-nitrophenylphosphoryl-choline (pNPPC) (Sigma-Aldrich, St. Louis, Mo.) as substrate for NPP6 and NPP7. The final volume (60 μL) included 20 μL (CM, NPP6 or CCM, NPP7, 20 μL inhibitor (10 μM including 1% DMSO) in assay buffer, and 20 μL pNPPC (10 mM, NPP6 or 1 NPP7) in assay buffer. NPP6 assay buffer contained 500 mM NaCl, 0.05% Triton X-100, 100 mM Tris-HCl (pH 9.0), whereas NPP7 assay buffer was comprised of 50 mM Tris HCl, pH 8.5, 150 mM NaCl, and 10 mM taurocholic acid. However, unlike the published methods, EDTA was not added to the NPP7 assay buffer. All assays were performed in 96-well, half area plates (Corning Inc., Lowell, Mass.) at 37° C. with data collected at 2 minute intervals using a Synergy2 absorbance plate reader (BioTek, Winooski, Vt.). Results are shown at the one hour time point, when all absorbance changes as a function of time were linear. Readings were normalized to vehicle control after subtraction of absorbance in the absence of CM or CCM. Data are shown as the mean±S.D. of at least three wells. All experiments were repeated twice and representative results are shown.
# (§2) Assays were performed with CM or CCM from HEK293 cells transiently transfected with NPP6 and 7 expression plasmids, respectively. HEK293 cells were seeded in Dulbecco's modified Eagle's medium (DMEM) containing 10% fetal bovine serum, 100 U/ml penicillin, 100 μg/ml streptomycin (Hyclone, Logan, Utah), and 2 mM L-glutamine. HEK293 cells were grown overnight at 37° C. under 5% CO2 to 80% confluence. The cells were then transfected with human NPP6ex^51 or human NPP7ex expression plasmids in the pcDNA3.1(+) mammalian vector in the presence of Polyfect Transfection Reagent (Hyclone, Logan, Utah). Six hours after transfection, the culture medium was changed to serum free DMEM containing L-glutamine and cells were incubated for 48 hours. Expressed protein was collected (NPP6 and NPP7) and concentrated ˜10×(NPP7) using 10 kDa molecular weight cutoff filters (Millipore, Beverly, Mass.) in an Amicon pressure cell (Millipore, Beverly, Mass.).
# human NPP6 = target: T2, human NPP6 (Homo sapiens, UniProt Q6UWR7); experiment: Determination of NPP6 inhibition (pNPPC substrate); details: 10 μM inhibitor
# T2 construct: transfected with human NPP6ex^51 or human NPP7ex expression plasmids; made in house; host or cells: HEK293 cells, transient transfection, pcDNA3.1(+); unconcentrated conditioned medium (CM)
# T2 sequence (Q6UWR7 23-419 limits assumed): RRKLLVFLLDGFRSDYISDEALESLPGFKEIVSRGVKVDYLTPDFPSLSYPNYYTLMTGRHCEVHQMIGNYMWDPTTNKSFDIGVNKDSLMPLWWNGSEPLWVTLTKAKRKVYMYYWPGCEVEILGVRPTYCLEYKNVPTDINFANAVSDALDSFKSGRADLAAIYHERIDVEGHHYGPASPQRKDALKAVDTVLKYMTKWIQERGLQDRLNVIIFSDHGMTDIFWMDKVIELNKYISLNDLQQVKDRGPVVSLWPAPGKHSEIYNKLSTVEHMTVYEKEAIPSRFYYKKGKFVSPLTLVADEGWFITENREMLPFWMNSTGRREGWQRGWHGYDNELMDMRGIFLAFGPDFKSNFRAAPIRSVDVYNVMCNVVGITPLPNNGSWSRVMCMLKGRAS
# Experimental: as §1, §2
Molecule,% Response at 10 μM (FS-3) (ATX) [%],single dose response comparison by aromatic substituent and position (ATX),further results
"2-(4-{[(4-dimethylaminonapthylphenyl)amino]carbonothioyl}-1-piperazinyl)-8-ethyl-5-oxo-5,8-dihydropyrido[2,3-d]pyrimidine-6-carboxylic acid [Compound 2]",59.9 ± 1.5,–,–
"CCn1cc(C(=O)O)c(=O)c2cnc(N3CCN(C(=S)Nc4ccc(C(=O)O)cc4)CC3)nc21 [Compound 4, 2-(4-{[(4-carboxylphenyl)amino]carbonothioyl}-1-piperazinyl)-8-ethyl-5-oxo-5,8-dihydropyrido[2,3-d]pyrimidine-6-carboxylic acid]",72.7 ± 2.2,–,–
"CCn1cc(C(=O)O)c(=O)c2cnc(N3CCN(C(=S)Nc4ccc(S(=O)(=O)N5CCOCC5)cc4)CC3)nc21 [Compound 6, 2-(4-{[(4-morpholinosulfonylphenyl)amino]carbonothioyl}-1-piperazinyl)-8-ethyl-5-oxo-5,8-dihydropyrido[2,3-d]pyrimidine-6-carboxylic acid]",64.1 ± 2.8,–,–
"CCn1cc(C(=O)O)c(=O)c2cnc(N3CCN(C(=S)Nc4c(C)cc(C)cc4C)CC3)nc21 [Compound 8, 2-(4-{[(2,4,6-mesitylphenyl)amino]carbonothioyl}-1-piperazinyl)-8-ethyl-5-oxo-5,8-dihydropyrido[2,3-d]pyrimidine-6-carboxylic acid]",53.5 ± 1.6,–,–
"CCn1cc(C(=O)O)c(=O)c2cnc(N3CCN(C(=S)Nc4ccc(-n5cccn5)cc4)CC3)nc21 [Compound 9, 2-(4-{[(4-pyrazolephenyl)amino]carbonothioyl}-1-piperazinyl)-8-ethyl-5-oxo-5,8-dihydropyrido[2,3-d]pyrimidine-6-carboxylic acid]",68.6 ± 1.1,–,–
"CCn1cc(C(=O)O)c(=O)c2cnc(N3CCN(C(=S)Nc4ccccc4Cl)CC3)nc21 [Compound 17, 2-(4-{[(2-chlorophenyl)amino]carbonothioyl}-1-piperazinyl)-8-ethyl-5-oxo-5,8-dihydropyrido[2,3-d]pyrimidine-6-carboxylic acid]",83.5 ± 8.2,83.5 ± 8.2,–
"CCn1cc(C(=O)O)c(=O)c2cnc(N3CCN(C(=S)Nc4ccccc4OC)CC3)nc21 [Compound 21, 2-(4-{[(2-methoxyphenyl)amino]carbonothioyl}-1-piperazinyl)-8-ethyl-5-oxo-5,8-dihydropyrido[2,3-d]pyrimidine-6-carboxylic acid]",97.6 ± 1.8,97.6 ± 1.8,–
"CCn1cc(C(=O)O)c(=O)c2cnc(N3CCN(C(=S)Nc4ccc(OC)cc4)CC3)nc21 [Compound 24, 2-(4-{[(4-methoxyphenyl)amino]carbonothioyl}-1-piperazinyl)-8-ethyl-5-oxo-5,8-dihydropyrido[2,3-d]pyrimidine-6-carboxylic acid]",79.7 ± 0.9,79.7 ± 0.9,–
"CCn1cc(C(=O)O)c(=O)c2cnc(N3CCN(C(=S)Nc4ccccc4I)CC3)nc21 [Compound 26, 2-(4-{[(2-iodophenyl)amino]carbonothioyl}-1-piperazinyl)-8-ethyl-5-oxo-5,8-dihydropyrido[2,3-d]pyrimidine-6-carboxylic acid]",68.4 ± 1.3,68.4 ± 1.3,–

# Continued, in another order:
% Response at 10 μM (FS-3) (ATX) [%],single dose response comparison by aromatic substituent and position (ATX),Molecule,further results
51.2 ± 1.3,–,"CCn1cc(C(=O)O)c(=O)c2cnc(N3CCN(C(=S)Nc4ccccc4C(=O)OC)CC3)nc21 [Compound 5, 2-(4-{[(2-methylesterphenyl)amino]carbonothioyl}-1-piperazinyl)-8-ethyl-5-oxo-5,8-dihydropyrido[2,3-d]pyrimidine-6-carboxylic acid]",–
63.2 ± 2.8,–,"CCn1cc(C(=O)O)c(=O)c2cnc(N3CCN(C(=S)Nc4ccccc4-c4cccc5nsnc45)CC3)nc21 [Compound 10, 2-(4-{[(2-benzothiadiazolphenyl)amino]carbonothioyl}-1-piperazinyl)-8-ethyl-5-oxo-5,8-dihydropyrido[2,3-d]pyrimidine-6-carboxylic acid]",–
100.8 ± 1.9,100.8 ± 1.9,"CCn1cc(C(=O)O)c(=O)c2cnc(N3CCN(C(=S)Nc4ccccc4C(F)(F)F)CC3)nc21 [Compound 12, 2-(4-{[(2-trifluoromethylphenyl)amino]carbonothioyl}-1-piperazinyl)-8-ethyl-5-oxo-5,8-dihydropyrido[2,3-d]pyrimidine-6-carboxylic acid]",–
72.3 ± 0.4,–,"CCn1cc(C(=O)O)c(=O)c2cnc(N3CCN(C(=S)Nc4cccc(Cl)c4Cl)CC3)nc21 [Compound 15, 2-(4-{[(2,3-dichlorophenyl)amino]carbonothioyl}-1-piperazinyl)-8-ethyl-5-oxo-5,8-dihydropyrido[2,3-d]pyrimidine-6-carboxylic acid]",–
56.4 ± 1.0,–,"CCn1cc(C(=O)Oc2ccccc2)c(=O)c2cnc(N3CCN(C(=S)Nc4ccccc4)CC3)nc21 [Compound 16, 2-(4-{[(phenyl)amino]carbonothioyl}-1-piperazinyl)-8-ethyl-5-oxo-5,8-dihydropyrido[2,3-d]pyrimidine-6-carboxylic acid phenyl]",–
40.9 ± 1.3,40.9 ± 1.3,"CCn1cc(C(=O)O)c(=O)c2cnc(N3CCN(C(=S)Nc4cccc(OC)c4)CC3)nc21 [Compound 19, 2-(4-{[(3-methoxyphenyl)amino]carbonothioyl}-1-piperazinyl)-8-ethyl-5-oxo-5,8-dihydropyrido[2,3-d]pyrimidine-6-carboxylic acid]","effect on activity of NPP7 (human NPP7): None of the compounds affected the activity; effect on activity of NPP6 (human NPP6): None of the compounds affected the activity; IC50 (ATX; FS-3 substrate): 17.7 ± 0.3 µM; inhibition at 10 µM (ATX; single dose 10 μM, % inhibition, read-out: inhibition of ATX-mediated hydrolysis of FS-3): ≥ 50%"
77.3 ± 1.6,77.3 ± 1.6,"CCn1cc(C(=O)O)c(=O)c2cnc(N3CCN(C(=S)Nc4ccccc4F)CC3)nc21 [Compound 30, 2-(4-{[(2-fluorophenyl)amino]carbonothioyl}-1-piperazinyl)-8-ethyl-5-oxo-5,8-dihydropyrido[2,3-d]pyrimidine-6-carboxylic acid]",–
